Laboratory results from patent publication US10287616B2, “Label free biosensors, gram-negative bacteria detection, and real-time and end point determination of antibiotic effects” (priority 2015, dated 2019).
Read-outs that look alike come from different tables or passages of the source.

What was measured:
E. coli W1485 [1] = experiment: Real time experiment, SWV signal after 3 hours of incubation with antibiotic; format: cell-based, Escherichia coli; settings: 30 mg/L antibiotic; for SWV sensor signal: without antibiotic 0.37 μA
Experimental: Electrochemical measurements were performed on a GAMRY 4-channel electrochemical workstation. A three-electrode electrochemical cell composed of a Con A sensor as working electrode, platinum wire as counter electrode and Ag/AgCl (saturated KCl) electrode as reference electrode, was used. Square wave voltammetric measurements were performed under ambient conditions (21-23° C.). Each measurement had been repeated at least three times with independently prepared Con A sensors.
For the real time measurements, Con A sensor was mounted in a biosensor cell containing 1 mL of 10 mM HEPES buffer (pH 7.4). Real time QCM measurements were obtained for each experimental step. First, 1 μL of 5×10^8 cells/mL E. coli obtained from the stationary phase was added into the biosensor cell. When frequency reached a constant value, it was washed with 1 mL of 10 mM HEPES buffer to remove the unbound E. coli. […] The frequency changes vs time and the damping resistance vs time were recorded by QCM.
Different types of antibiotics have differing abilities to alter the LPS properties and subsequent reduction in their binding. This can be used as an indicator for the antibiotic effects for killing the bacteria or inhibiting their growth. The biosensor ability to quantitatively measure these parameters real time was tested. For that purpose, the Con A sensor was exposed to 1 μL of 5×10^8 cells/mL E. coli to capture the bacteria via Con A-LPS binding. The unbound E. coli was removed by washing with 1 mL of 10 mM HEPES buffer. […] In the three separate measurements shown in FIG. 25A, it can be clearly seen that the initial parts of the curves which are related to E. coli immobilization are almost coinciding to each other. This real time QCM measurement also allows us to observe the reproducibility of the sensor performance. In the last parts of the curves, when different antibiotics are added, their variable effects in killing the bacteria and reducing their binding caused a variable shift of the frequency. This shift was opposite in direction to what was obtained by bacterial addition which is indicative of reduced binding. These responses (shown in the inset) provided the quantitative details of this effect. […] Due to real time nature of this experiment, the frequency and damping resistance change were much smaller than that of FIGS. 24A and 24B. This confirms that the antibiotic drug effect on LPS is a slow process but the high sensitivity sensor disclosed herein allows such subtle changes to be measured. Moreover, the results of the QCM and Electrochemical measurements are validating each other again. […]

E. coli W1485 [2] = settings: for ΔF (Hz): 10 mg/L antibiotic, FIG. 27; for ΔR (Ω) / ΔR/R0 (%): 10 mg/L
Experimental: Experiments were also performed to study the concentration of the antibiotics and the length of the incubation time of antibiotics for their ability to kill or inhibit the growth of the bacteria. Different concentrations of each antibiotic were added to 5×10^8 cells/mL E. coli respectively, and then incubated at 37° C. and 280 rpm on the shaker. After 3 hours of incubation, 1 μL of antibiotic treated E. coli culture was added to the Con A sensor cell containing 1 mL of 10 mM HEPES buffer (pH 7.4) for QCM measurements, respectively. […] 1 μL of each antibiotic treated E. coli was taken at different incubation times (i.e., 0, 1, 2, 3 hours) and was added into the Con A senor cell containing 1 mL of 10 mM HEPES buffer (pH 7.4) for QCM measurements.
In most studies dealing with antibiotic-induced LPS release, bioreactive endotoxin has been measured by means of the Limulus amoebocyte lysate (LAL) assay, which involves an enzymatic reaction triggered by the core region of LPS. […] However, some antibiotics (i.e., aminoglycoside) are known to suppress the LAL reaction, which limits the application of LAL. Reproducible ELISA also can be used to detect LPS. […] A QCM is known to provide a very sensitive mass measuring device and dispense with the time- and cost-demanding labeling step and also eliminates any possible interference of the “true” binding process due to the presence of the labels.

E. coli W1485 [3] = experiment: End point antibiotic susceptibility test with Con A biosensor, square wave voltammetry readout; format: cell-based, Escherichia coli; settings: 18 hours, FIG. 24B inset
Experimental: In the end point measurement, four samples containing 2×10^5 cells/mL of E. coli obtained from log phase in fresh LB culture were prepared. […] The four samples were incubated for 18 hours, 37° C., 280 rpm on an orbital environmental shaker. Finally, 1 μL of the E. coli culture from the each prepared sample was introduced to the Con A biosensor in 1 mL of 10 mM HEPES buffer (pH 7.4) for QCM and electrochemical biosensor measurements, respectively. The sample without addition of any antibiotic was used as control.
The concentrations used were based on the literature and current clinically used dosages. The sample without any antibiotic was used as a control. As mentioned above, E. coli W1485 was used as the model Gram-negative bacterial analyte. E. coli W1485 is a “semirough” bacterial strain in which the intact LPS core is capped by a single O-antigen subunit consisting of glucose, N-acetylglucosamine, galactose, and rhamnose in the ratio 1.8:1.0:0.7:0.6, which has been confirmed by the sodium dodecyl sulfate polyacrylamide gel electrophoresis (SDS-PAGE) method. Con A binds specifically at α-D-mannosyl and α-D-glucosyl residues (two hexoses differing only by the alcohol on carbon 2) in the terminal position of ramified structures from β-glycans (reach in α-mannose, or hybrid and biantennary glycanes complexes).

| Compound | SWV sensor signal, fold of signal without antibiotic (E. coli W1485 [1]) [fold] | SWV sensor signal (E. coli W1485 [1]) [μA] | ΔF (Hz) (E. coli W1485 [2]; incubation time 0 h) | ΔF (Hz) (E. coli W1485 [2]; incubation time 1 h) | ΔF (Hz) (E. coli W1485 [2]; incubation time 2 h) | ΔF (Hz) (E. coli W1485 [2]; incubation time 3 h) | ΔR (Ω) (E. coli W1485 [2]; 0 h) | ΔR/R0 (%) (E. coli W1485 [2]; 0 h) | ΔR (Ω) (E. coli W1485 [2]; 1 h) | ΔR/R0 (%) (E. coli W1485 [2]; 1 h) | ΔR (Ω) (E. coli W1485 [2]; 2 h) | ΔR/R0 (%) (E. coli W1485 [2]; 2 h) | ΔR (Ω) (E. coli W1485 [2]; 3 h) | ΔR/R0 (%) (E. coli W1485 [2]; 3 h) | increase of the SWV signal as compared to control (E. coli W1485 [3]; 0.1 mg/L antibiotic) [folds] | increase of the SWV signal as compared to control (E. coli W1485 [3]; 10 mg/L antibiotic) [folds] |
| --- | --- | --- | --- | --- | --- | --- | --- | --- | --- | --- | --- | --- | --- | --- | --- | --- |
| CO/N=C(\C(=O)N[C@@H]1C(=O)N2C(C(=O)O)=C(CSc3nc(=O)c(=O)[nH]n3C)CS[C@H]12)c1csc(N)n1 [ceftriaxone] | 2.50 | 0.92 | 356 | 256 | 223 | 187 | 15 Ω | 4.9 | 15.5 Ω | 5.0 | 16.1 Ω | 5.2 | 16.6 Ω | 5.4 | 4.8 | – |
| O=C(O)c1cn(C2CC2)c2cc(N3CCNCC3)c(F)cc2c1=O [ciprofloxacin] | – | 0.89 | – | – | – | – | 15 Ω | 4.9 | 17 Ω | 5.6 | 18.6 Ω | 6.1 | 14 Ω | 4.6 | 7.2 | – |
| CN(C)[C@@H]1C(O)=C(C(N)=O)C(=O)[C@@]2(O)C(O)=C3C(=O)c4c(O)cccc4[C@@](C)(O)[C@H]3C[C@@H]12 [tetracycline] | – | 0.65 | 378 | 329 | 279 | 244 | 16 Ω | 5.3 | 17 Ω | 5.6 | 16 Ω | 5.2 | 15.6 Ω | 5.1 | – | 2 |
